Reference: ChEMBL document CHEMBL1141641, “SAR studies of capsazepinoid bronchodilators. Part 1: The importance of the catechol moiety and aspects of the B-ring structure” (Bioorg Med Chem, 2008)

Organism: Homo sapiens
Assay: Bronchodilation activity against leukotriene D4-induced constriction in human lung small airways assessed as remaining contraction at 10 uM after 1.5 hrs relative to control
Format: functional

| SMILES | Remaining contraction |
| --- | --- |
| Oc1cc2c(cc1O)CN(C(=S)NCCc1ccc(Cl)cc1)CC2 | 36% |
| Oc1cc2c(cc1O)CN(C(=S)NCCc1ccc(Cl)cc1)CCC2 | 55% |
| Oc1ccc(CCNC(=S)NCCc2ccc(Cl)cc2)cc1O | 72% |
| Oc1ccc2c(c1)CN(C(=S)NCCc1ccc(Cl)cc1)C2 | 41% |
| Oc1ccc2c(c1)CCCN(C(=S)NCCc1ccc(Cl)cc1)C2 | 53% |
| Oc1ccc2c(c1O)CCN(C(=S)NCCc1ccc(Cl)cc1)C2 | 63% |
| CN(Cc1ccc(O)c(O)c1)C(=S)NCCc1ccc(Cl)cc1 | 69% |
| Oc1cc2c(cc1O)C(Cc1ccccc1)N(C(=S)NCCc1ccc(Cl)cc1)CC2 (centres undefined) | 79% |
| Oc1cc2c(cc1O)CCN(C(=S)NCCc1ccc(Cl)cc1)CC2 | 54% |
| Oc1cc2c(cc1O)CN(C(=S)NCCc1ccc(Cl)cc1)C2 | 56% |
| Oc1cccc2c1CN(C(=S)NCCc1ccc(Cl)cc1)C2 | 82% |
| CC1Cc2cc(O)c(O)cc2CN1C(=S)NCCc1ccc(Cl)cc1 (centres undefined) | 70% |
| Oc1ccc2c(c1)CN(C(=S)NCCc1ccc(Cl)cc1)CCC2 | 40% |
| Oc1ccc(CNC(=S)NCCc2ccc(Cl)cc2)cc1O | 69% |
| Oc1cccc2c1CCN(C(=S)NCCc1ccc(Cl)cc1)C2 | 48% |
| Oc1ccc2c(c1)CN(C(=S)NCCc1ccc(Cl)cc1)CC2 | 75% |
| Oc1cccc2c1CN(C(=S)NCCc1ccc(Cl)cc1)CC2 | 73% |
| Oc1ccc2c(c1)CCN(C(=S)NCCc1ccc(Cl)cc1)C2 | 52% |
| CC1c2cc(O)c(O)cc2CCN1C(=S)NCCc1ccc(Cl)cc1 (centres undefined) | 58% |
